In US20090253644A1, “Radiosensitizer” (TOYO SUISAN KAISHA, LTD., priority 2004, published 2009):

Key:
[1] = tested on: angiogenesis (tube formation); assay: Assay by angiogenesis kit (KZ-1000), tube formation; assay type: cell-based
Description: The anti-angiogenic effect obtained by combined use of 20 μM of α-SQMG C18:0 administration and 4 Gy of ^60Co γ-ray irradiation was investigated using an angiogenesis kit (“angiogenesis kit KZ-1000” of Kurabo Industries Ltd.).
A drug named Suramin is the known substance as a drug suppressing angiogenesis, and it is known that its action is to inhibit a growth factor receptor of a vascular endothelial cell. In the present Example, Suramin was used as a positive control at 50 μM.
As described above, the “theoretical additive point of combined use” is calculated by multiplication, and the theoretical value is compared with an actually measured value.

[2] = tested on: Bovine aortic endothelial cells (BAEC); assay: Colony assay on vascular endothelial cells with 60Co γ-ray irradiation; assay type: cell-based; design: key to actually measured SF value of combined use group / actually measured SF value of combined use: SF = colonies/seeded cells×(PE/100); PE = control colony formation rate; conditions: for SF (cell surviving fraction), administration alone / synergistic effect of combined use with radiation on suppression of proliferation of vascular endothelial cells: 10 μM; for SF (cell surviving fraction), administration alone: 24 hours, no irradiation; for synergistic effect of combined use with radiation on suppression of proliferation of vascular endothelial cells: 4 Gy and/or 6 Gy
Description: Bovine aortic endothelial cells (BAEC) were appropriately seeded on a petri dish, and adhesion of cells was confirmed after 2 to 3 hours. In a group of α-SQMG C18:0 administration alone and a combined use group, the cells were treated with 10 μM of α-SQMG C18:0. After 24 hours, a medium was exchanged in all test groups, and 4 Gy of ^60Co γ-ray was irradiated in a group of irradiation alone and a combined use group. After the cells were cultured in a CO2 incubator at 37° C. for 10 to 12 days, formed colonies were fixed with formalin, and stained with a crystal violet staining solution. On each plate, the number of colonies consisting of about 50 or more cells was counted, and cell surviving fraction (SF) was obtained according to the following equation.
SF (cell surviving fraction)=number of colonies/number of seeded cells×(PE/100)
Herein, PE (plating efficiency) represents a colony formation rate (%) on a plate of a control.
An experiment was performed three times, and an average of them was calculated.
The same experiment as that of Experimental Example 2-1 was performed except that a radiation dose 6 Gy was irradiated in place of 4 Gy used in Experimental Example 2-1. […]

[3] = 4 Gy 60Co γ-ray + α-SQMG C18:0 20 μM or Suramin 50 μM

Row | SMILES | tube formation rate, Actually measured value, combined use [1, 3] | tube formation rate, Theoretical value (theoretical additive point of combined use) [1, 3] | tube formation rate, use alone ([1]; α-SQMG C18:0 20 μM, Suramin 50 μM, no irradiation) | actually measured SF value of combined use group ([2]; 10 μM + 4 Gy 60Co γ-ray) | theoretical additive point of combined use (SF) ([2]; 10 μM + 4 Gy 60Co γ-ray) | SF (cell surviving fraction), administration alone [2] | actually measured SF value of combined use group ([2]; 10 μM + 6 Gy 60Co γ-ray) | theoretical additive point of combined use (SF) ([2]; 10 μM + 6 Gy 60Co γ-ray) | synergistic effect of combined use with radiation on suppression of proliferation of vascular endothelial cells [2]
1 | Cc1ccc(C(=O)Nc2ccc(S(=O)(=O)O)c3cc(S(=O)(=O)O)cc(S(=O)(=O)O)c23)cc1NC(=O)c1cccc(NC(=O)Nc2cccc(C(=O)Nc3cc(C(=O)Nc4ccc(S(=O)(=O)O)c5cc(S(=O)(=O)O)cc(S(=O)(=O)O)c45)ccc3C)c2)c1 [Suramin, reference compound] | 0.232 | 0.219 | 0.3386 | – | – | – | – | – | –
2 | CCCCCCCCCCCCCCCCCC(=O)OCC(CO[C@H]1O[C@H](CS(=O)(=O)[O-])[C@@H](O)[C@H](O)[C@H]1O)OC(=O)CCCCCCCCCCCCCCCCC.[Na+] (stereo partly drawn) [α-SQDG C18:0, 3-O-(6-deoxy-6-sulfo-α-D-glucopyranosyl)-1,2-di-O-stearoyl-glycerol sodium salt] | – | – | – | 0.0882 | 0.1765 | 0.9216 | – | – | –
3 | CCCCCCCCCCCCCC(=O)OCC(O)CO[C@H]1O[C@H](CS(=O)(=O)[O-])[C@@H](O)[C@H](O)[C@H]1O.[Na+] (stereo partly drawn) [α-SQMG C14:0, 3-O-(6-deoxy-6-sulfo-α-D-glucopyranosyl)-1-O-myristoyl-glycerol sodium salt] | – | – | – | – | – | 1.0605 | 0.0109 | 0.0715 | considerably great synergistic effect
4 | CCCCCCCCCCCCCCCC(=O)OCC(O)CO[C@H]1O[C@H](CS(=O)(=O)[O-])[C@@H](O)[C@H](O)[C@H]1O.[Na+] (stereo partly drawn) [α-SQMG C16:0, 3-O-(6-deoxy-6-sulfo-α-D-glucopyranosyl)-1-O-palmitoyl-glycerol sodium salt] | – | – | – | – | – | 0.9553 | 0.0233 | 0.0644 | considerably great synergistic effect
5 | CCCCCCCC/C=C\CCCCCCCC(=O)OCC(O)CO[C@H]1O[C@H](CS(=O)(=O)[O-])[C@@H](O)[C@H](O)[C@H]1O.[Na+] (stereo partly drawn) [α-SQMG C18:1, 3-O-(6-deoxy-6-sulfo-α-D-glucopyranosyl)-1-O-oleoyl-glycerol sodium salt] | – | – | – | 0.0843 | 0.1990 | 1.0392 | – | – | –
6 | CCCCCCCCCCCCCCCCCC(=O)OCC(O)CO[C@H]1O[C@H](CS(=O)(=O)[O-])[C@@H](O)[C@H](O)[C@@H]1O.[Na+] (stereo partly drawn) [α-SRMG C18:0, 3-O-(6-deoxy-6-sulfo-α-D-mannopyranosyl)-1-O-stearoyl-glycerol sodium salt] | – | – | – | 0.0784 | 0.1677 | 0.8758 | – | – | –
7 | CCCCCCCCCCCCCCCCCC(=O)OCC(CO[C@@H]1O[C@H](CS(=O)(=O)[O-])[C@@H](O)[C@H](O)[C@H]1O)OC(=O)CCCCCCCCCCCCCCCCC.[Na+] (stereo partly drawn) [β-SQDG C18:0, 3-O-(6-deoxy-6-sulfo-β-D-glucopyranosyl)-1,2-di-O-stearoyl-glycerol sodium salt] | – | – | – | 0.0908 | 0.1377 | 0.7190 | – | – | –
8 | CCCCCCCCCCCCCCCCCC(=O)OCC(O)CO[C@@H]1O[C@H](CS(=O)(=O)[O-])[C@@H](O)[C@H](O)[C@H]1O.[Na+] (stereo partly drawn) [β-SQMG C18:0, 3-O-(6-deoxy-6-sulfo-β-D-glucopyranosyl)-1-O-stearoyl-glycerol sodium salt] | – | – | – | 0.0922 | 0.1640 | 0.8562 | – | – | –
